Assay results published in the NIST ThermoML archive (doi:10.1021/je1002237).
Numbers after ± are expanded uncertainties.

Assay: xn = mol fraction of the nth substance listed
Conditions: 101 kPa, Liquid

CCOS(=O)(=O)[O-].CCn1cc[n+](C)c1 [1-ethyl-3-methylimidazolium ethyl sulfate] + CC1COC(=O)O1
x2 = 0
Conditions | mass density [kg/m3]
278.15 K | 1251.04 ± 1.1
283.15 K | 1247.5 ± 1.1
288.15 K | 1244.04 ± 1.1
293.15 K | 1240.66 ± 1.1
298.15 K | 1237.27 ± 1.1
303.15 K | 1233.89 ± 1.1
308.15 K | 1230.51 ± 1.1

CCOS(=O)(=O)[O-].CCn1cc[n+](C)c1 [1-ethyl-3-methylimidazolium ethyl sulfate] + CC#N
mass density [kg/m3]
Conditions | 278.15 K | 283.15 K | 288.15 K | 293.15 K | 298.15 K | 303.15 K | 308.15 K
x2 = 0 | 1251.04 ± 1.1 | 1247.5 ± 1.1 | 1244.04 ± 1.1 | 1240.66 ± 1.1 | 1237.27 ± 1.1 | 1233.89 ± 1.1 | 1230.51 ± 1.1
x2 = 0.0051 | 1250.84 ± 1.1 | 1247.29 ± 1.1 | 1243.84 ± 1.1 | 1240.44 ± 1.1 | 1237.06 ± 1.1 | 1233.68 ± 1.1 | 1230.3 ± 1.1
x2 = 0.0099 | 1250 ± 1.1 | 1246.45 ± 1.1 | 1243.01 ± 1.1 | 1239.61 ± 1.1 | 1236.22 ± 1.1 | 1232.83 ± 1.1 | 1229.45 ± 1.1
x2 = 0.0202 | 1249.09 ± 1.1 | 1245.54 ± 1.1 | 1242.11 ± 1.1 | 1238.69 ± 1.1 | 1235.31 ± 1.1 | 1231.91 ± 1.1 | 1228.53 ± 1
x2 = 0.0499 | 1245.66 ± 1.1 | 1242.09 ± 1.1 | 1238.68 ± 1.1 | 1235.26 ± 1.1 | 1231.85 ± 1 | 1228.44 ± 1 | 1225.03 ± 1
x2 = 0.1001 | 1239.88 ± 1 | 1236.38 ± 1 | 1232.93 ± 1 | 1229.48 ± 1 | 1226.04 ± 1 | 1222.6 ± 1 | 1219.16 ± 0.99
x2 = 0.1426 | 1236.22 ± 1 | 1232.77 ± 1 | 1229.28 ± 1 | 1225.81 ± 0.99 | 1222.35 ± 0.98 | 1218.9 ± 0.97 | 1215.45 ± 0.97
x2 = 0.2507 | 1218.64 ± 0.94 | 1215.07 ± 0.93 | 1211.5 ± 0.92 | 1207.95 ± 0.91 | 1204.39 ± 0.9 | 1200.86 ± 0.9 | 1197.33 ± 0.89
x2 = 0.3434 | 1202.08 ± 0.87 | 1198.44 ± 0.87 | 1194.79 ± 0.86 | 1191.15 ± 0.85 | 1187.54 ± 0.84 | 1183.93 ± 0.83 | 1180.33 ± 0.83
x2 = 0.4592 | 1177.36 ± 0.8 | 1173.6 ± 0.79 | 1169.85 ± 0.78 | 1166.12 ± 0.78 | 1162.39 ± 0.77 | 1158.68 ± 0.76 | 1154.98 ± 0.76
x2 = 0.5799 | 1140.91 ± 0.71 | 1137 ± 0.7 | 1133.1 ± 0.7 | 1129.22 ± 0.69 | 1125.35 ± 0.68 | 1121.49 ± 0.67 | 1117.63 ± 0.67
x2 = 0.679 | 1101.24 ± 0.62 | 1097.17 ± 0.62 | 1093.12 ± 0.61 | 1089.08 ± 0.6 | 1085.03 ± 0.6 | 1081 ± 0.59 | 1076.97 ± 0.58
x2 = 0.7423 | 1068.73 ± 0.56 | 1064.52 ± 0.56 | 1060.33 ± 0.55 | 1056.15 ± 0.54 | 1051.97 ± 0.54 | 1047.8 ± 0.53 | 1043.63 ± 0.53
x2 = 0.7865 | 1041.05 ± 0.52 | 1036.74 ± 0.52 | 1032.43 ± 0.51 | 1028.13 ± 0.5 | 1023.83 ± 0.5 | 1019.53 ± 0.49 | 1015.24 ± 0.49
x2 = 0.8539 | 988.5 ± 0.46 | 983.97 ± 0.47 | 979.43 ± 0.47 | 974.91 ± 0.47 | 970.37 ± 0.47 | 965.84 ± 0.48 | 961.31 ± 0.48
x2 = 0.897 | 945.89 ± 0.49 | 941.18 ± 0.5 | 936.47 ± 0.5 | 931.76 ± 0.51 | 927.04 ± 0.51 | 922.31 ± 0.52 | 917.58 ± 0.52
x2 = 0.9342 | 902.15 ± 0.53 | 897.28 ± 0.54 | 892.39 ± 0.55 | 887.47 ± 0.55 | 882.61 ± 0.56 | 877.89 ± 0.57 | 873.12 ± 0.57
x2 = 0.9567 | 871.14 ± 0.57 | 866.13 ± 0.58 | 861.1 ± 0.59 | 856.07 ± 0.59 | 851.01 ± 0.6 | 845.95 ± 0.61 | 840.87 ± 0.62
x2 = 0.9707 | 849.53 ± 0.6 | 844.43 ± 0.61 | 839.31 ± 0.62 | 834.19 ± 0.63 | 829.04 ± 0.63 | 823.87 ± 0.64 | 818.69 ± 0.65
x2 = 0.9803 | 833.78 ± 0.63 | 828.62 ± 0.63 | 823.44 ± 0.64 | 818.24 ± 0.65 | 813.02 ± 0.66 | 807.78 ± 0.67 | 802.52 ± 0.68
x2 = 0.9872 | 821.79 ± 0.64 | 816.57 ± 0.65 | 811.34 ± 0.66 | 806.09 ± 0.67 | 800.81 ± 0.68 | 795.52 ± 0.69 | 790.19 ± 0.7
x2 = 0.9925 | 812.49 ± 0.66 | 807.23 ± 0.67 | 801.95 ± 0.68 | 796.67 ± 0.69 | 791.34 ± 0.69 | 786 ± 0.7 | 780.62 ± 0.71
x2 = 0.9967 | 804.39 ± 0.67 | 799.09 ± 0.68 | 793.78 ± 0.69 | 788.44 ± 0.7 | 783.08 ± 0.71 | 777.69 ± 0.72 | 772.28 ± 0.73
